Test results published in patent US10570140B2, “Selective inhibitors of protein arginine methyltransferase 5 (PRMT5)” (Prelude Therapeutics, Incorporated, priority 2017, dated 2020).

system: sDMA; test: Western blot for symmetric di-methyl arginine (sDMA) IC50 in Granta cells; assay type: cell-based; details: Homo sapiens, 72 h; Granta-519 cell line, 3 days

IC50 [nM]	SMILES
60000	C[C@@]1(O)[C@@H](COc2cccc(CN)c2)O[C@@H](n2ccc3c(N)ncnc32)[C@@H]1O [Example 22, (2R,3S,4R,5R)-5-(4-amino-7H-pyrrolo[2,3-d]pyrimidin-7-yl)-2-((3-(aminomethyl)phenoxy)methyl)-3-methyltetrahydrofuran-3,4-diol]
1	C[C@@]1(O)[C@@H](COc2ccc3cc(Br)c(N)nc3c2)O[C@@H](n2ccc3c(N)ncnc32)[C@@H]1O [Example 12, (2R,3S,4R,5R)-2-(((2-amino-3-bromoquinolin-7-yl)oxy)methyl)-5-(4-amino-7H-pyrrolo[2,3-d]pyrimidin-7-yl)-3-methyltetrahydrofuran-3,4-diol]

molecular target: PRMT5/MEP50 complex (Homo sapiens (Human), UniProt O14744); test: PRMT5 biochemical assay (3H-SAM filter plate, histone H2A substrate); details: not given
Method: Biochemical Assay Protocol
Compounds were solubilized and 3-fold diluted in 100% DMSO. […] Standard reactions were performed in a total volume of 50 μl in assay buffer, with histone H2A (5 μM final) as substrate. To this was added the PRMT5/MEP50 complex diluted to provide a final assay concentration of 5 nM and the compounds were allowed to preincubate for 15 to 20 minutes at room temperature. The reaction was initiated by adding S-[3H-methyl]-adenosyl-L-methionine (PerkinElmer) to final concentration of 1 μM. Following a 60 minutes incubation at 30° C., the reaction was stopped by adding 100 μL of 20% TCA. Each reaction was spotted onto filter plate (MultiScreen FB Filter Plate, Millipore), and washed 5 times with PBS buffer, Scintillation fluid was added to the filter plate and read in a scintillation counter. IC50 values were determined by fitting the data to the standard 4 parameters with Hill Slope using GraphPad Prism software.

Chain of PRMT5/MEP50 complex (O14744 whole entry): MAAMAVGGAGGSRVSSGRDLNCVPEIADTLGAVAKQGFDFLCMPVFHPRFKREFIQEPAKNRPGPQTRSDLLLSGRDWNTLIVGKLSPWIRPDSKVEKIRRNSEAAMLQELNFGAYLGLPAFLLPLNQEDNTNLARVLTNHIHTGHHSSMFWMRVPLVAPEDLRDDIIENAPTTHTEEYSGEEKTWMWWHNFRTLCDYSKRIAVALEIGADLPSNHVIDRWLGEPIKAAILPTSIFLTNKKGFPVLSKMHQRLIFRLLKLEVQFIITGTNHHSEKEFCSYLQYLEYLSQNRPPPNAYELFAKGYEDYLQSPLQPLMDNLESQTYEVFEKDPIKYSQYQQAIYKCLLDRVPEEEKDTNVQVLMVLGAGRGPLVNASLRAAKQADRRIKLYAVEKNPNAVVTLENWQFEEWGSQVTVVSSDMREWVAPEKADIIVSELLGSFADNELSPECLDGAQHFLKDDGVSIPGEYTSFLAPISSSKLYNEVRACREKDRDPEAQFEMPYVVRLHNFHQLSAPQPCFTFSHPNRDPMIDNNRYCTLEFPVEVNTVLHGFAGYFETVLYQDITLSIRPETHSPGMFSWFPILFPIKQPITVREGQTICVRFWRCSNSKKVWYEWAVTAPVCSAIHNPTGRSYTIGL
Chain of PRMT5/MEP50 complex (Q9BQA1 whole entry partner): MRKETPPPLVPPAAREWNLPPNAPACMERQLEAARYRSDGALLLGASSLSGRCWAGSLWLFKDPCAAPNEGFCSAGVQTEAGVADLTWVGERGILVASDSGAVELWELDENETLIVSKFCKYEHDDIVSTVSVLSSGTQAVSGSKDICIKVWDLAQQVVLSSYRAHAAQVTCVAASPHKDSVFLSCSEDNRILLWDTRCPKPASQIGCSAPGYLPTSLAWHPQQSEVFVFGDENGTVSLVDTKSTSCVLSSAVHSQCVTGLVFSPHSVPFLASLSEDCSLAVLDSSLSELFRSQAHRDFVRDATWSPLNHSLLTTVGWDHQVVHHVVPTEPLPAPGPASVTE

SMILES	IC50 [nM]
CO/N=c1\[nH]cnc2c1ccn2[C@@H]1O[C@H](COc2ccc3ccc(N)nc3c2)[C@@](C)(O)[C@H]1O [Example 32, 7-((2R,3R,4S,5R)-5-(((2-aminoquinolin-7-yl)oxy)methyl)-3,4-dihydroxy-4-methyltetrahydrofuran-2-yl)-3,7-dihydro-4H-pyrrolo[2,3-d]pyrimidin-4-one O-methyloxime]	10

same assay, conditions: PRMT5/MEP50 5 nM, histone H2A 5 μM, SAM 1 μM; read-out: PRMT5 IC50

IC50 [nM]	SMILES
126	C[C@@]1(O)[C@@H](COc2cccc(CN)c2)O[C@@H](n2ccc3c(N)ncnc32)[C@@H]1O [Example 22, (2R,3S,4R,5R)-5-(4-amino-7H-pyrrolo[2,3-d]pyrimidin-7-yl)-2-((3-(aminomethyl)phenoxy)methyl)-3-methyltetrahydrofuran-3,4-diol]
428	CO/N=c1/nc[nH]c2c1ccn2[C@@H]1O[C@H]([C@H](O)c2ccc(Cl)c(Cl)c2)[C@@](C)(O)[C@H]1O [Example 37, 7-((2R,3R,4S,5R)-5-((R)-(3,4-dichlorophenyl)(hydroxy)methyl)-3,4-dihydroxy-4-methyltetrahydrofuran-2-yl)-1,7-dihydro-4H-pyrrolo[2,3-d]pyrimidin-4-one O-methyl oxime]
1.1	Cc1ncnc2c1ccn2[C@@H]1O[C@H](COc2ccc3ccc(N)nc3c2)[C@@](C)(O)[C@H]1O [Example 10, (2R,3S,4R,5R)-2-(((2-aminoquinolin-7-yl)oxy)methyl)-3-methyl-5-(4-methyl-7H-pyrrolo[2,3-d]pyrimidin-7-yl)tetrahydrofuran-3,4-diol]
11500	CO/N=c1\[nH]cnc2c1ccn2[C@@H]1O[C@H](COc2ccc3ccc(NOC)nc3c2)[C@@](C)(O)[C@H]1O [Example 45, (Z)-7-((2R,3R,4S,5R)-3,4-dihydroxy-5-(((2-(methoxyamino)quinolin-7-yl)oxy)methyl)-4-methyltetrahydrofuran-2-yl)-3,7-dihydro-4H-pyrrolo[2,3-d]pyrimidin-4-one O-methyl oxime]
0.5	C[C@@]1(O)[C@@H](COc2ccc3cc(Br)c(N)nc3c2)O[C@@H](n2ccc3c(N)ncnc32)[C@@H]1O [Example 12, (2R,3S,4R,5R)-2-(((2-amino-3-bromoquinolin-7-yl)oxy)methyl)-5-(4-amino-7H-pyrrolo[2,3-d]pyrimidin-7-yl)-3-methyltetrahydrofuran-3,4-diol]
14300	C[C@@]1(O)[C@@H](COc2ccccc2)O[C@@H](n2ccc3c(N)ncnc32)[C@@H]1O [Example 20, (2R,3S,4R,5R)-5-(4-amino-7H-pyrrolo[2,3-d]pyrimidin-7-yl)-3-methyl-2-(phenoxymethyl)tetrahydrofuran-3,4-diol]
8.7	C=C[C@@]1(O)[C@@H](COc2ccc3ccc(N)nc3c2)O[C@@H](n2ccc3c(N)ncnc32)[C@@H]1O [Example 4, (2R,3S,4R,5R)-5-(4-amino-7H-pyrrolo[2,3-d]pyrimidin-7-yl)-2-(((2-aminoquinolin-7-yl)oxy)methyl)-3-vinyltetrahydrofuran-3,4-diol]
825	C[C@@]1(O)[C@@H](C(=O)Nc2cccc(CN)c2)O[C@@H](n2ccc3c(N)ncnc32)[C@@H]1O [Example 43, (2S,3S,4R,5R)-5-(4-amino-7H-pyrrolo[2,3-d]pyrimidin-7-yl)-N-(3-(aminomethyl)phenyl)-3,4-dihydroxy-3-methyltetrahydrofuran-2-carboxamide]
413	C[C@@]1(O)[C@@H](Cc2ccc(Cl)cc2CO)O[C@@H](n2ccc3c(N)ncnc32)[C@@H]1O [Example 65, (2R,3S,4R,5R)-5-(4-amino-7H-pyrrolo[2,3-d]pyrimidin-7-yl)-2-(4-chloro-2-(hydroxymethyl)benzyl)-3-methyltetrahydrofuran-3,4-diol]
200000	C[C@@]1(O)[C@@H](COc2cccc(NC(N)=O)c2)O[C@@H](n2ccc3c(Cl)ncnc32)[C@@H]1O [Example 41, 1-(3-(((2R,3S,4R,5R)-5-(4-chloro-7H-pyrrolo[2,3-d]pyrimidin-7-yl)-3,4-dihydroxy-3-methyltetrahydrofuran-2-yl)methoxy)phenyl)urea]
1610	Cc1ncnc2c1ccn2[C@@H]1O[C@H](Cc2ccc(Cl)cc2CO)[C@@](C)(O)[C@H]1O [Example 64, (2R,3S,4R,5R)-2-(4-chloro-2-(hydroxymethyl)benzyl)-3-methyl-5-(4-methyl-7H-pyrrolo[2,3-d]pyrimidin-7-yl)tetrahydrofuran-3,4-diol]
9100	C[C@@]1(O)[C@@H](C(=O)Nc2cccc(CN)c2)O[C@@H](n2ccc3c(Cl)ncnc32)[C@@H]1O [Example 42, (2S,3S,4R,5R)-N-(3-(aminomethyl)phenyl)-5-(4-chloro-7H-pyrrolo[2,3-d]pyrimidin-7-yl)-3,4-dihydroxy-3-methyltetrahydrofuran-2-carboxamide]
5.8	C[C@@]1(O)[C@@H](COc2ccc3cccnc3c2)O[C@@H](n2ccc3c(N)ncnc32)[C@@H]1O [Example 53, (2R,3S,4R,5R)-5-(4-amino-7H-pyrrolo[2,3-d]pyrimidin-7-yl)-3-methyl-2-((quinolin-7-yloxy)methyl)tetrahydrofuran-3,4-diol]
404	C[C@@]1(O)[C@@H](Cc2ccc(Cl)c(Cl)c2)O[C@@H](n2ccc3cncnc32)[C@@H]1O [Example 51, (2R,3S,4R,5R)-2-(3,4-dichlorobenzyl)-3-methyl-5-(7H-pyrrolo[2,3-d]pyrimidin-7-yl)tetrahydrofuran-3,4-diol]
16	Cc1ncnc2c1ccn2[C@@H]1O[C@H]([C@H](O)c2ccc(F)c(C(F)(F)F)c2)[C@@](C)(O)[C@H]1O [Example 61, (2R,3S,4R,5R)-2-((R)-(4-fluoro-3-(trifluorometh-yl)phenyl)(hydroxy)methyl)-3-methyl-5-(4-methyl-7H-pyrrolo[2,3-d]pyrimidin-7-yl)tetrahydrofuran-3,4-diol]
368	Cc1ncnc2c1ccn2[C@@H]1O[C@H]([C@H](O)c2ccc(OC(F)(F)F)cc2)[C@@](C)(O)[C@H]1O [Example 60, (2R,3S,4R,5R)-2-((R)-hydroxy(4-(trifluoromethoxy)phenyl)methyl)-3-methyl-5-(4-methyl-7H-pyrrolo[2,3-d]pyrimidin-7-yl)tetrahydrofuran-3,4-diol]
229	C[C@@]1(O)[C@@H](Cc2ccc3c(c2)OCO3)O[C@@H](n2ccc3c(N)ncnc32)[C@@H]1O [Example 49, (2R,3S,4R,5R)-5-(4-amino-7H-pyrrolo[2,3-d]pyrimidin-7-yl)-2-(benzo[d][1,3]dioxol-5-ylmethyl)-3-methyltetrahydrofuran-3,4-diol]
198	Cc1ncnc2c1ccn2[C@@H]1O[C@H](COc2ccc3cccnc3c2)[C@@](C)(O)[C@H]1O [Example 54, (2R,3S,4R,5R)-3-methyl-5-(4-methyl-7H-pyrrolo[2,3-d]pyrimidin-7-yl)-2-((quinolin-7-yloxy)methyl)tetrahydrofuran-3,4-diol]
0.9	Cc1cnc2cc(OC[C@H]3O[C@@H](n4ccc5c(N)ncnc54)[C@H](O)[C@]3(C)O)ccn12 [Example 68, (2R,3S,4R,5R)-5-(4-amino-7H-pyrrolo[2,3-d]pyrimidin-7-yl)-3-methyl-2-(((3-methylimidazo[1,2-a]pyridin-7-yl)oxy)methyl)tetrahydrofuran-3,4-diol]
399	Cc1ncnc2c1ccn2[C@@H]1O[C@H]([C@H](O)c2ccc(C(C)C)cc2)[C@@](C)(O)[C@H]1O [Example 59, (2R,3S,4R,5R)-2-((R)-hydroxy(4-isopropylphenyl)methyl)-3-methyl-5-(4-methyl-7H-pyrrolo[2,3-d]pyrimidin-7-yl)tetrahydrofuran-3,4-diol]
14100	CNc1ncnc2c1ccn2[C@@H]1O[C@H](CSC)[C@@](C)(O)[C@H]1O [Example 40, (2S,3S,4R,5R)-3-methyl-5-(4-(methylamino)-7H-pyrrolo[2,3-d]pyrimidin-7-yl)-2-((methylthio)methyl)tetrahydrofuran-3,4-diol]
1440	COC[C@H]1O[C@@H](n2ccc3c(N)ncnc32)[C@H](O)[C@]1(C)O [Example 19, (2R,3S,4R,5R)-5-(4-amino-7H-pyrrolo[2,3-d]pyrimidin-7-yl)-2-(methoxymethyl)-3-methyltetrahydrofuran-3,4-diol]
3480	CO/N=c1\[nH]cnc2c1ccn2[C@@H]1O[C@H]([C@H](O)c2ccc(Cl)cc2)[C@@](C)(O)[C@H]1O [Example 44, (Z)-7-((2R,3R,4S,5R)-5-((R)-(4-chlorophenyl)(hydroxy)methyl)-3,4-dihydroxy-4-methyltetrahydrofuran-2-yl)-3,7-dihydro-4H-pyrrolo[2,3-d]pyrimidin-4-one O-methyl oxime]
7840	C[C@@]1(O)[C@@H](COc2cccc(NC(N)=O)c2)O[C@@H](n2ccc3c(N)ncnc32)[C@@H]1O [Example 21, 1-(3-(((2R,3S,4R,5R)-5-(4-amino-7H-pyrrolo[2,3-d]pyrimidin-7-yl)-3,4-dihydroxy-3-methyltetrahydrofuran-2-yl)methoxy)phenyl)urea]

SMILES	IC50 [nM]
C[C@@]1(O)[C@@H]([C@H](O)c2ccc(Cl)cc2)O[C@@H](n2ccc3/c(=N/O)[nH]cnc32)[C@@H]1O [Example 46, (Z)-7-((2R,3R,4S,5R)-5-((R)-(4-chlorophenyl)(hydroxy)methyl)-3,4-dihydroxy-4-methyltetrahydrofuran-2-yl)-3,7-dihydro-4H-pyrrolo[2,3-d]pyrimidin-4-one oxime]	92
